Where two headings read alike, the source gives them in different places.
Details: surfactant applied for 2 minutes to plates coated with 100 μg/ml LPS, absorbance 620 nm, FIG. 6
Method: To measure the removal of bacterial lipopolysaccharide, a HEK-Blue LPS detection kit (InvivoGen, San Diego, Calif., USA) was used. 24-well plates were coated with 100 μg/ml of an LPS standard (E. coli K12 LPS) and allowed to stand at 4° C. for 8 hours. […] HEK-Blue cells were dispersed in detection media, after which the cells were seeded onto the plates at a density of 4×10^4 cells/well and cultured at 37° C. for 24 hours. The absorbance at a wavelength of 620 nm was measured using a microplate reader (BIO-TEK, Winooski, Vt., USA). The ratio of the remaining LPS standard was calculated using the absorbance of a lipopolysaccharide-free water-coated well as a blank.

Row | Substance | relative ratio of the remaining LPS standard | relative ratio of the remaining LPS standard (listed as octyl phenol ethoxylate)
1 | Sorbitan monooleate [Span 80] | higher in the order of polyoxyethylene (HLB 10)<Tween 20 (HLB 16)<Span 80 (HLB 4) | –
2 | Tween 20 | higher in the order of polyoxyethylene (HLB 10)<Tween 20 (HLB 16)<Span 80 (HLB 4) | –
3 | octyl phenol ethoxylate [Triton X-100] | the ratio of the remaining LPS standard was the lowest | has the best effect on the removal of lipopolysaccharide

From patent US20130224128A1, “DENTAL CLEANSER COMPOSITION FOR IMPROVING ADHESION TO TEETH” (NANO INTELLIGENT BIOMEDICAL ENGINEERING CO., LTD., priority 2010, published 2013)
